Experimental data from US9090609B2, “Benzyl-substituted carbamates and use thereof” (BAYER INTELLECTUAL PROPERTY GMBH, priority 2010, dated 2015).

Assays:
[1] = molecular target: T1, recombinant guanylate cyclase reporter cell line (Rattus norvegicus, UniProt P19686+P20595); experiment: Effect on a recombinant guanylate cyclase reporter cell line; type: cell-based
T1 construct: expressed in transfected cells; host or cells: recombinant reporter cell line
T1 sequence (P20595 1-619): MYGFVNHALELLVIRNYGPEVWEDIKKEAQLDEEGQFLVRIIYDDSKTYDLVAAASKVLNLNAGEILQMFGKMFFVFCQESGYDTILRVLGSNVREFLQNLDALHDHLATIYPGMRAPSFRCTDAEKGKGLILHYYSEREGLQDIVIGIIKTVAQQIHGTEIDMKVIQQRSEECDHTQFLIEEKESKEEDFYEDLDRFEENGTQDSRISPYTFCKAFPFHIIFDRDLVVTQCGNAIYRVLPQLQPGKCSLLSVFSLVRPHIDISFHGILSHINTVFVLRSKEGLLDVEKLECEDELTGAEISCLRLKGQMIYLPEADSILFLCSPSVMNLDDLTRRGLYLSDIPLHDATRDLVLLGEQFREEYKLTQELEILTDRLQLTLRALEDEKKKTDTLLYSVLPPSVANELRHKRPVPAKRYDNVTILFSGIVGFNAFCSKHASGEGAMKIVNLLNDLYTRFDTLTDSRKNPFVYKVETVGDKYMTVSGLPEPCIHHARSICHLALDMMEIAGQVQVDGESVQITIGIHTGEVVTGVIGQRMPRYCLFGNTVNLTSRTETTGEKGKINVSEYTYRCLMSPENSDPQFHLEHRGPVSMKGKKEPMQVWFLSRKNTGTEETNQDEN
T1 sequence (P19686 1-690): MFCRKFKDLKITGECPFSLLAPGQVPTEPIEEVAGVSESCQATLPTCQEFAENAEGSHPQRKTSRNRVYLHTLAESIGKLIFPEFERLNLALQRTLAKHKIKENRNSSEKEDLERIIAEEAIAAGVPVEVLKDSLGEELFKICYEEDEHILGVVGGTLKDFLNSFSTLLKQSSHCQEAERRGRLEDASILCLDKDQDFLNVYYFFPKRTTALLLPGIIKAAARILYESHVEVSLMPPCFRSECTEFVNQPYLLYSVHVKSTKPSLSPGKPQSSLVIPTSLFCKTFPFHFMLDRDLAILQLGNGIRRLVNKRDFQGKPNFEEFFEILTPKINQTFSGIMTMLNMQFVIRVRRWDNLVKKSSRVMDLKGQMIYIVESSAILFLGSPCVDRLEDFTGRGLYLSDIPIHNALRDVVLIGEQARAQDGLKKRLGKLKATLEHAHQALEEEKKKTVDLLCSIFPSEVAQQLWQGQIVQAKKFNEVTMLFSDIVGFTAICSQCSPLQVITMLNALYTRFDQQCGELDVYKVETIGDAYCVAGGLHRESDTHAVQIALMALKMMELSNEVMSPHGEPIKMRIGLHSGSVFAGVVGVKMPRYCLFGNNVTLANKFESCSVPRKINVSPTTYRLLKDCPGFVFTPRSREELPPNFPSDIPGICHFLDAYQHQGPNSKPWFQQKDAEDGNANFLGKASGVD
Description: B-2. Effect on a Recombinant Guanylate Cyclase Reporter Cell Line
The cellular activity of the compounds according to the invention is determined using a recombinant guanylate cyclase reporter cell line, as described in F. Wunder et al., Anal. Biochem. 339, 104-112 (2005).

aorta rings = experiment: Vasorelaxant action in vitro (phenylephrine-contracted aorta rings); conditions: Oryctolagus cuniculus; concentration needed to reduce the phenylephrine contraction of rabbit aorta rings by 50%
Description: B-1. Vasorelaxant Action In Vitro
Rabbits are stunned by a blow to the neck and exsanguinated. The aorta is removed, freed from adhering tissue and divided into rings of a width of 1.5 mm. The rings are placed individually under an initial tension in 5 ml organ baths with Krebs-Henseleit solution which is at 37° C., is gassed with carbogen and has the following composition (in each case mM): sodium chloride 119; potassium chloride: 4.8; calcium chloride dihydrate: 1; magnesium sulfate heptahydrate: 1.4; potassium dihydrogenphosphate: 1.2; sodium bicarbonate: 25; glucose: 10. The contractile force is determined with Statham UC2 cells, amplified and digitalized using A/D transducers (DAS 1802 HC, Keithley Instruments Munich), and recorded in parallel on linear recorders. To obtain a contraction, phenylephrine is added to the bath cumulatively in increasing concentration. After several control cycles, the substance to be investigated is added in each further run in increasing dosage in each case, and the height of the contraction achieved is compared with the height of the contraction reached in the last preceding run. This is used to calculate the concentration needed to reduce the magnitude of the control value by 50% (IC50 value). The standard administration volume is 5 μl; the DMSO content in the bath solution corresponds to 0.1%.

With COC(=O)N(Cc1ccccc1)c1cnc(-n2nc(Cc3ccccc3F)c3ncccc32)nc1N [Example 2, Methyl {4-amino-2-[3-(2-fluorobenzyl)-1H-pyrazolo[4,3-b]pyridin−1-yl]pyrimidin-5-yl}benzylcarbamate] the “MEC (minimum effective concentration)” value [1] was 0.3 µM and the IC50 (aorta rings) was 0.705 nM.
COC(=O)N(Cc1ccccc1F)c1c(N)nc(-n2nc(Cc3ccccc3F)c3ncccc32)nc1N [Example 3, Methyl {4,6-diamino-2-[3-(2-fluorobenzyl)-1H-pyrazolo[4,3-b]pyridin-1-yl]pyrimidin-5-yl}(2-fluorobenzyl)carbamate] was tested, and the “MEC (minimum effective concentration)” value [1] was 0.1 µM and the IC50 (aorta rings) was 0.399 nM.
For COC(=O)N(Cc1ccc(F)cc1)c1c(N)nc(-n2nc(Cc3ccccc3F)c3ncccc32)nc1N [Example 4, Methyl {4,6-diamino-2-[3-(2-fluorobenzyl)-1H-pyrazolo[4,3-b]pyridin-1-yl]pyrimidin-5-yl}(4-fluorobenzyl)carbamate], the “MEC (minimum effective concentration)” value [1] was 0.1 µM and the IC50 (aorta rings) was 0.359 nM.
With COC(=O)N(Cc1ccccc1)c1c(N)nc(-n2nc(Cc3ccccc3F)c3ncccc32)nc1N [Example 5, Methyl benzyl{4,6-diamino-2-[3-(2-fluorobenzyl)-1H-pyrazolo[4,3-b]pyridin-1-yl]pyrimidin-5-yl}carbamate] the “MEC (minimum effective concentration)” value [1] was 0.1 µM and the IC50 (aorta rings) was 0.185 nM.
CC(C)OC(=O)N(Cc1ccccc1)c1c(N)nc(-n2nc(Cc3ccccc3F)c3ncc(F)cc32)nc1N [Example 6, Isopropyl benzyl{4,6-diamino-2-[6-fluoro-3-(2-fluorobenzyl)-1H-pyrazolo[4,3-b]pyridin-1-yl]pyrimidin-5-yl}carbamate] was tested, and the “MEC (minimum effective concentration)” value [1] was 0.1 µM and the IC50 (aorta rings) was 0.745 nM.
COC(=O)N(Cc1ccccc1)c1c(N)nc(-n2nc(Cc3ccccc3F)c3ncc(F)cc32)nc1N [Example 8, Methyl benzyl{4,6-diamino-2-[6-fluoro-3-(2-fluorobenzyl)-1H-pyrazolo[4,3-b]pyridin-1-yl]pyrimidin-5-yl}carbamate] gave an IC50 (aorta rings) of 0.154 nM.
